Where “and” joins values, the source holds several entries; their conditions need not be identical. Identical values can stand only once. HELM strings list units from the 5' end as sugar, base in round brackets, then linkage (d deoxyribose, r ribose, m 2'-O-methyl, p phosphodiester). Strings are as the collection lists them; they lack the last nucleoside at the 3' end of the tested compound. [moe] = 2'-O-(2-methoxyethyl) (MOE); [sp] = phosphorothioate linkage; [m5C] = 5-methylcytosine
Each substance was assayed against SMN2 (assay: mouse, dose not given). Details: ASO.
In the case of “RNA1{[moe](T)[sp].[moe]([m5C])[sp].[moe](A)[sp].[moe]([m5C])[sp].[moe](T)[sp].[moe](T)[sp].[moe](T)[sp].[moe]([m5C])[sp].[moe](A)[sp].[moe](T)[sp].[moe](A)[sp].[moe](A)[sp].[moe](T)[sp].[moe](G)[sp].[moe]([m5C])[sp].[moe](T)[sp].[moe](G)[sp].[moe](G)p.d(A)}$$$$ (last 3' nucleoside missing)”, the 3 h FOB score is reported as 4 score 0-7 (2×) and 4.25 score 0-7 (2×) and 3.75 score 0-7 (2×). “RNA1{[moe](A)[sp].[moe](T)p.[moe](T)[sp].[moe]([m5C])[sp].[moe](A)[sp].[moe]([m5C])[sp].[moe](T)[sp].[moe](T)[sp].[moe](T)[sp].[moe]([m5C])p.[moe](A)[sp].[moe](T)[sp].[moe](A)[sp].[moe](A)[sp].[moe](T)[sp].[moe](G)[sp].[moe]([m5C])[sp].[moe](T)[sp].[moe](G)}$$$$ (last 3' nucleoside missing)” showed a 3 h FOB score of 3.25 score 0-7. With “RNA1{[moe](A)[sp].[moe](T)p.[moe](T)[sp].[moe]([m5C])p.[moe](A)[sp].[moe]([m5C])[sp].[moe](T)[sp].[moe](T)[sp].[moe](T)[sp].[moe]([m5C])[sp].[moe](A)[sp].[moe](T)[sp].[moe](A)[sp].[moe](A)[sp].[moe](T)[sp].[moe](G)[sp].[moe]([m5C])[sp].[moe](T)[sp].[moe](G)}$$$$ (last 3' nucleoside missing)” the 3 h FOB score was 3.5 score 0-7. With “RNA1{[moe]([m5C])[sp].[moe](A)[sp].[moe]([m5C])[sp].[moe](T)[sp].[moe](T)[sp].[moe](T)[sp].[moe]([m5C])[sp].[moe](A)[sp].[moe](T)[sp].[moe](A)[sp].[moe](A)[sp].[moe](T)[sp].[moe](G)[sp].[moe]([m5C])[sp].[moe](T)[sp].[moe](G)}$$$$ (last 3' nucleoside missing)” the 3 h FOB score was 3.25 score 0-7. Work on “RNA1{[moe](G)[sp].[moe](A)[sp].[moe](T)[sp].[moe](T)[sp].[moe]([m5C])[sp].[moe](A)[sp].[moe]([m5C])[sp].[moe](T)[sp].[moe](T)[sp].[moe](T)[sp].[moe]([m5C])[sp].[moe](A)[sp].[moe](T)[sp].[moe](A)[sp].[moe](A)[sp].[moe](T)[sp].[moe](G)[sp].[moe]([m5C])[sp].[moe](T)}$$$$ (last 3' nucleoside missing)” yielded a 3 h FOB score of 4 score 0-7. Substance “RNA1{[moe]([m5C])[sp].[moe](A)[sp].[moe]([m5C])[sp].[moe](T)[sp].[moe](T)[sp].[moe](T)[sp].[moe]([m5C])[sp].[moe](A)[sp].[moe](T)p.[moe](A)[sp].[moe](A)[sp].[moe](T)[sp].[moe](G)[sp].[moe]([m5C])[sp].[moe](T)[sp].[moe](G)[sp].[moe](G)}$$$$ (last 3' nucleoside missing)” has a 3 h FOB score of 0 score 0-7. For “RNA1{[moe](T)[sp].[moe](T)p.[moe]([m5C])[sp].[moe](A)[sp].[moe]([m5C])[sp].[moe](T)[sp].[moe](T)[sp].[moe](T)[sp].[moe]([m5C])p.[moe](A)[sp].[moe](T)[sp].[moe](A)[sp].[moe](A)[sp].[moe](T)[sp].[moe](G)[sp].[moe]([m5C])[sp].[moe](T)[sp].[moe](G)}$$$$ (last 3' nucleoside missing)”, the 3 h FOB score was 2.5 score 0-7. “RNA1{[moe](T)[sp].[moe]([m5C])[sp].[moe](A)[sp].[moe]([m5C])[sp].[moe](T)[sp].[moe](T)[sp].[moe](T)[sp].[moe]([m5C])[sp].[moe](A)[sp].[moe](T)[sp].[moe](A)[sp].[moe](A)p.[moe](T)[sp].[moe](G)[sp].[moe]([m5C])[sp].[moe](T)[sp].[moe](G)}$$$$ (last 3' nucleoside missing)” was tested, and the 3 h FOB score was 3.5 score 0-7. In the case of “RNA1{[moe]([m5C])[sp].[moe](A)[sp].[moe]([m5C])[sp].[moe](T)[sp].[moe](T)[sp].[moe](T)[sp].[moe]([m5C])[sp].[moe](A)[sp].[moe](T)p.[moe](A)[sp].[moe](A)[sp].[moe](T)[sp].[moe](G)[sp].[moe]([m5C])[sp].[moe](T)p.[moe](G)[sp].[moe](G)}$$$$ (last 3' nucleoside missing)”, the 3 h FOB score is reported as 0 score 0-7. Substance “RNA1{[moe]([m5C])[sp].[moe](A)[sp].[moe]([m5C])[sp].[moe](T)[sp].[moe](T)p.[moe](T)[sp].[moe]([m5C])[sp].[moe](A)[sp].[moe](T)[sp].[moe](A)[sp].[moe](A)[sp].[moe](T)[sp].[moe](G)[sp].[moe]([m5C])[sp].[moe](T)p.[moe](G)[sp].[moe](G)}$$$$ (last 3' nucleoside missing)” has a 3 h FOB score of 0 score 0-7. “RNA1{[moe]([m5C])[sp].[moe](A)p.[moe]([m5C])p.[moe](T)p.[moe](T)[sp].[moe](T)[sp].[moe]([m5C])[sp].[moe](A)[sp].[moe](T)[sp].[moe](A)[sp].[moe](A)[sp].[moe](T)[sp].[moe](G)p.[moe]([m5C])p.[moe](T)p.[moe](G)[sp].[moe](G)}$$$$ (last 3' nucleoside missing)” gave a 3 h FOB score of 0 score 0-7. “RNA1{[moe](A)[sp].[moe]([m5C])[sp].[moe](T)[sp].[moe](T)[sp].[moe](T)[sp].[moe]([m5C])[sp].[moe](A)p.[moe](T)p.[moe](A)p.[moe](A)p.[moe](T)p.[moe](G)[sp].[moe]([m5C])[sp].[moe](T)[sp].[moe](G)[sp].[moe](G)}$$$$ (last 3' nucleoside missing)” was tested, and the 3 h FOB score was 0 score 0-7. For “RNA1{[moe](A)[sp].[moe]([m5C])p.[moe](T)p.[moe](T)p.[moe](T)[sp].[moe]([m5C])[sp].[moe](A)[sp].[moe](T)[sp].[moe](A)[sp].[moe](A)[sp].[moe](T)[sp].[moe](G)p.[moe]([m5C])p.[moe](T)p.[moe](G)[sp].[moe](G)}$$$$ (last 3' nucleoside missing)”, the 3 h FOB score was 0 score 0-7. “RNA1{[moe]([m5C])[sp].[moe](T)[sp].[moe](T)[sp].[moe](T)[sp].[moe]([m5C])[sp].[moe](A)[sp].[moe](T)p.[moe](A)p.[moe](A)p.[moe](T)p.[moe](G)[sp].[moe]([m5C])[sp].[moe](T)[sp].[moe](G)[sp].[moe](G)}$$$$ (last 3' nucleoside missing)” was tested, and the 3 h FOB score was 0.75 score 0-7. “RNA1{[moe](T)[sp].[moe]([m5C])[sp].[moe](A)[sp].[moe]([m5C])[sp].[moe](T)[sp].[moe](T)[sp].[moe](T)[sp].[moe]([m5C])[sp].[moe](A)[sp].[moe](T)[sp].[moe](A)[sp].[moe](A)[sp].[moe](T)[sp].[moe](G)[sp].[moe]([m5C])[sp].[moe](T)[sp].[moe](G)[sp].[moe](G)[sp].[moe]([m5C])}$$$$ (last 3' nucleoside missing)” gave a 3 h FOB score of 0 score 0-7. In the case of “RNA1{[moe]([m5C])[sp].[moe](T)p.[moe](T)p.[moe](T)p.[moe]([m5C])[sp].[moe](A)[sp].[moe](T)[sp].[moe](A)[sp].[moe](A)[sp].[moe](T)[sp].[moe](G)[sp].[moe]([m5C])p.[moe](T)p.[moe](G)[sp].[moe](G)}$$$$ (last 3' nucleoside missing)”, the 3 h FOB score is reported as 0 score 0-7. “RNA1{[moe]([m5C])[sp].[moe](A)[sp].[moe]([m5C])[sp].[moe](T)[sp].[moe](T)[sp].[moe](T)[sp].[moe]([m5C])[sp].[moe](A)[sp].[moe](T)[sp].[moe](A)[sp].[moe](A)[sp].[moe](T)[sp].[moe](G)[sp].[moe]([m5C])p.[moe](T)p.[moe](G)[sp].[moe](G)}$$$$ (last 3' nucleoside missing)” gave a 3 h FOB score of 0 score 0-7.

— the OligoGym collection
